The source of these data is patent US20160208002A1, “Compositions Associated with and Methods of Managing Neutrophil Movement” (priority 2013, published 2016).

pIC50, pKd: −log10 of the molar value.

One may read the pIC50 as −log10 of the IC50, conventionally taken in molar units. In general, pKd refers to the negative decadic logarithm of the Kd, by convention in mol/L.

For one assay, the target named is T1, CD209 tetramer (Homo sapiens, UniProt Q9NNX6).
T1 sequence (Q9NNX6 59-404 limits assumed): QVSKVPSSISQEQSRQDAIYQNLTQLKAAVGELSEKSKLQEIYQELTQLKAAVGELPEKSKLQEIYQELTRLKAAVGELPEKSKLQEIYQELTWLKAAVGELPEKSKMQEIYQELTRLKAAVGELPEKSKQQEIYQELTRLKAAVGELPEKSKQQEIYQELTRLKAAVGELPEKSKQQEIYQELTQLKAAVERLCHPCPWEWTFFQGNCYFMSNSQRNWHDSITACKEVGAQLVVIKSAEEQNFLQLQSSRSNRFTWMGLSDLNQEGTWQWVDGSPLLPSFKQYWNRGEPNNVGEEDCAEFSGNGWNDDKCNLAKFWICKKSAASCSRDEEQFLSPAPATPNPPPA
Experiment: not given
The following applies: concentration required to inhibit, by 50%, the binding of a fluorescently labeled mannosylated glycoconjugate to CD209 tetramer; cited from earlier work.
As to `CCCCCC1C(=O)Nc2cc(C(=O)N3CCN(CCC)CC3)ccc2N1CC` (stereo not shown) [Compound 9], the pIC50 was 3.43.
In the case of `CCCCCC1C(=O)Nc2cc(C(=O)N3CCN(CC)CC3)ccc2N1C` (stereo not shown) [Compound 10], the pIC50 is 3.44.
Take `CCCCC1C(=O)Nc2cc(C(=O)N3CCN(C)CC3)ccc2N1C` (stereo not shown) [Compound 11]: the pIC50 is 3.48.
With `CCCCC1Nc2ccc(C(=O)N3CCN(C)CC3)cc2NC1=O` (stereo not shown) [Compound 12], the pIC50 is 3.50.
As for `CCC(=O)CCCC1C(=O)Nc2cc(C(=O)N3CCN(c4ccccc4)CC3)ccc2N1Cc1ccccc1` (stereo not shown) [Compound 14], the pIC50 was 3.77.
Regarding `O=C1Nc2cc(C(=O)N3CCN(c4ccccc4O)CC3)ccc2NC1CCCc1ccccc1` (stereo not shown) [Compound 15], the negative logarithm of the IC50 (pIC50) was 3.95.
On to `O=C1Nc2cc(C(=O)N3CCN(c4ccccc4)CC3)ccc2NC1CCCc1ccccc1C(F)(F)F` (stereo not shown) [Compound 16], for which the pIC50 was 4.15.
For the molecule `CCN1c2ccc(C(=O)N3CCN(c4ncccn4)CC3)cc2NC(=O)C1CCCc1ccc(C(N)=O)cc1` (stereo not shown) [Compound 17], the pIC50 is 4.17.
As for `CC(=O)Nc1cccc(CCCC2Nc3ccc(C(=O)N4CCN(c5cccc(C(F)(F)F)c5)CC4)cc3NC2=O)c1` (stereo not shown) [Compound 19], the pIC50 was 4.64.
Regarding `O=C(O)c1ccc(CCCC2Nc3ccc(C(=O)N4CCN(c5ccco5)CC4)cc3NC2=O)cc1` (stereo not shown) [Compound 20], the negative logarithm of the IC50 (pIC50) is 5.00.
As to `COc1ccccc1N1CCN(C(=O)c2ccc3c(c2)NC(=O)C(CCCc2ccccc2C)N3)CC1` (stereo not shown) [Compound 21], the pIC50 was 5.36.
As for `NC(=O)c1ccc(CCCC2Nc3ccc(C(=O)N4CCN(c5ncccn5)CC4)cc3NC2=O)cc1` (stereo not shown) [Compound 22], the pIC50 was 5.59.

For a further assay, the system named is human neutrophils. The assay is described as follows: human neutrophil adhesion to human fibronectin after TNF-α. It counts as cell-based. The following applies: 3 microgram/ml compound, 30 minutes, fibronectin-coated plate, FIG. 2. The source says: Human blood was collected into EDTA tubes (BD Bioscience, San Jose, Calif.) from adult volunteers who gave written consent and with specific approval from the Texas A&M University human subjects Institutional Review Board. Neutrophils were then isolated from the blood using Lympholyte-poly (Cedarlane Laboratories, Hornby, BC, Canada) following the manufacturer's protocol and resuspended in 2% bovine serum albumen (BSA) (fraction V, A3059; Sigma-Aldrich) in RPMI 1640 medium (Lonza, Allendale, N.J.). 96-well tissue culture plates (flat-bottom polystyrene, BD Bioscience) were pre-coated with 20 μg/ml of human plasma fibronectin (Trevigen, Gaithersburg, Md.) in phosphate buffered saline (PBS) for 30 minutes at 37° C. and then blocked with 2% BSA in RPMI for 1 hour at 37° C. 50 microliters of 5×10^5 cells/ml neutrophils were incubated with 3 microgram/ml (0.5 microliters of the stock solution) of compound 1 or 3 for 30 minutes at 37° C. in a 1.5 ml Eppendorf tube (Eppendorf, Hauppauge, N.Y.). When testing the effect of CD209 antibodies on neutrophil adhesion to human fibronectin, anti-human CD209 antibodies clone DCN46 (BD Biosciences, San Jose, Calif.), eB-h209 (eBioscience, San Jose, Calif.), H-200 (Santa Cruz Biotechnology, Dallas, Tex.), ab89186 (Abcam, Cambridge, Mass.), or 9E9A8 (Biolegend Inc, San Diego, Calif.) were incubated with neutrophils at a concentration of 1 microgram/ml (0.2 microliters of the stock solution) or the concentration indicated on the figure. Rat IgG2a was used as an isotype control for the anti-human CD209 antibody clone eB-h209. Mouse IgG2b was used as an isotype control for the anti-human CD209 antibody clone DCN46. Mouse IgG1 was used as an isotype control for the anti-human CD209 antibody clone 9E9A8. Rabbit IgG was used as an isotype control for the two rabbit anti-human CD209 antibodies clone H-200 and ab89186. […] After removing the media and washing the plates 3 times with PBS, the plates were air-dried, fixed, stained, and the number of neutrophils that remained in the wells was counted. […]
`COC(=O)c1ccc(-c2ccc(C=C3C(=O)N(c4ccc(S(N)(=O)=O)cc4)N=C3C(F)(F)F)o2)cc1` [Compound 3]: the “neutrophil adhesion compared to the TNF-α control” value is given as “significantly reduced neutrophil adhesion”.

The assay is the same for the next values; noted with them: 10 microgram/ml SAP, fibronectin-coated plate, FIG. 2.
Regarding “SAP: Serum Amyloid P from EMD Millipore, known to inhibit neutrophil migration and adhesion [reference compound]”, the “neutrophil adhesion compared to the TNF-α control” value is listed as “significantly reduced neutrophil adhesion”.

The next assay concerns the target T2, CD209 (Homo sapiens, UniProt Q9NNX6).
T2 sequence (Q9NNX6 1-404): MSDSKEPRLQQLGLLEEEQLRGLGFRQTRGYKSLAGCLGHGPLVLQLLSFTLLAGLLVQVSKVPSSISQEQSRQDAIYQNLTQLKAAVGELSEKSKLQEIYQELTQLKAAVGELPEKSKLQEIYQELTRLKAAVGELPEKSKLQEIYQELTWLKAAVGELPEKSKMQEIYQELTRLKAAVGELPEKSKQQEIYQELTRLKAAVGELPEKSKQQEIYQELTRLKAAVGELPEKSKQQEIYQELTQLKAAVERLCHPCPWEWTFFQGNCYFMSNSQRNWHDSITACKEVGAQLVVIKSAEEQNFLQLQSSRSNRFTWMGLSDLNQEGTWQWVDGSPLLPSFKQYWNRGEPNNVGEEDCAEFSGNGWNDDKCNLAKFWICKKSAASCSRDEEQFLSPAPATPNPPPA
Experiment: not given
The following applies: read-out: affinity for CD209, Kd; cited from earlier work.
`CCCOC(=O)c1ccc(-c2ccc(C=C3C(=O)N(c4ccc(S(N)(=O)=O)cc4)N=C3C(F)(F)F)o2)cc1` [Compound 2]: the pKd was 5.21.
For the molecule `COC(=O)c1ccc(-c2ccc(C=C3C(=O)N(c4ccc(S(N)(=O)=O)cc4)N=C3C(F)(F)F)o2)cc1` [Compound 3], the pKd was 4.49.
As to `O=C1Nc2cc(C(=O)N3CCN(c4ccccc4)CC3)ccc2NC1CSCc1c(F)cccc1Cl` (stereo not shown) [Compound 4], the pKd is 5.14.
On to `Cc1ccc(N(C)S(=O)(=O)c2ccc3[nH]cc(C(=O)N4CCN(c5ccccc5)CC4)c(=O)c3c2)cc1C` [Compound 6], for which the pKd was 5.21.
Regarding `CN1CCN(c2ccc(/C=C3\Sc4ccccc4C3=O)cc2[N+](=O)[O-])CC1` [Compound 7], the pKd is 5.00.
